The structures appear in SMILES notation.

The values that follow come from ChEMBL document CHEMBL5543069, “DW71177: A novel [1,2,4]triazolo[4,3-a]quinoxaline-based potent and BD1-Selective BET inhibitor for the treatment of acute myeloid leukemia” (Eur J Med Chem, 2024).

Data set [1] has as its target T1, Bromodomain-containing protein 4 (Homo sapiens, UniProt O60885). The experiment in a line: Binding affinity to human BRD4 BD1 expressed in Escherichia coli BL21 (DE3) assessed as dissociation constant by bromodomain analysis.
Data set [2] deals with T1, Bromodomain-containing protein 4. The experiment in a line: Binding affinity to human BRD4 BD2 expressed in Escherichia coli BL21 (DE3) assessed as dissociation constant by bromodomain analysis.
In another data set the test system is Ty-82. The experiment in a line: Cytotoxicity against human Ty-82 cells assessed as growth inhibition incubated for 72 hrs by WST-1 assay. As to conditions: TY82, 72 h. On the technique in general: Tetrazolium assays rely on reduction of a dye to a coloured formazan, in cell work by metabolically active cells.
Data set [3] can be described thus: in vivo. As to conditions: rat, po, 5 mg/kg.
Description: AUC (0 to infinity) in rat at 5 mg/kg, po
The test system of another data set is MV4-11. The experiment in a line: Cytotoxicity against human MV4-11 cells assessed as growth inhibition incubated for 72 hrs by WST-1 assay. As to conditions: MV4-11, 72 h.
A short description of data set [4]: Half life in rat at 5 mg/kg, po. As to conditions: in vivo.
A short description of data set [5]: in vivo. The conditions noted are these: rat, po, 5 mg/kg. This is another data set of the same source.
Description: Tmax in rat at 5 mg/kg, po
Data set [6] is described as follows: in vivo. The conditions noted are these: rat, po, 5 mg/kg. This is another data set of the same source.
Description: AUC (0 to t) in rat at 5 mg/kg, po
A short description of data set [7]: in vivo. As to conditions: rat, po, 5 mg/kg. This is another data set of the same source.
Description: Cmax in rat at 5 mg/kg, po
In data set [8] the target is T1, Bromodomain-containing protein 4. The experiment in a line: Binding affinity to human BRD4 BD1 expressed in Escherichia coli BL21 (DE3) assessed as dissociation constant by ITC analysis. (In general: In ITC the heat of successive injections is recorded.)
Data set [9] shares this target. The experiment in a line: Binding affinity to human BRD4 BD2 expressed in Escherichia coli BL21 (DE3) assessed as dissociation constant by ITC analysis.
A further data set concerns NCI-H1666. The experiment in a line: Antiproliferative activity against human NCI-H1666 cells assessed as growth inhibition incubated for 72 hrs by WST-1 assay. The conditions noted are these: NCI-H1666, 72 h.
The test system of the next data set is NCI-H1975. The experiment in a line: Antiproliferative activity against human NCI-H1975 cells assessed as growth inhibition incubated for 72 hrs by WST-1 assay. As to conditions: NCI-H1975, 72 h.
For a further data set, the system named is SUD4. The experiment in a line: Antiproliferative activity against human SU-DHL-4 cells assessed as growth inhibition incubated for 72 hrs by WST-1 assay. As to conditions: SU-DHL-4, 72 h.
For another data set, the system named is Pfeiffer. The experiment in a line: Antiproliferative activity against human Pfeiffer cells assessed as growth inhibition incubated for 72 hrs by WST-1 assay.
A further data set relates to BJAB. The experiment in a line: Antiproliferative activity against human BJAB cells assessed as growth inhibition incubated for 72 hrs by WST-1 assay.
The test system of the next data set is MOLT-4. The experiment in a line: Antiproliferative activity against human MOLT-4 cells assessed as growth inhibition incubated for 72 hrs by WST-1 assay. The conditions noted are these: MOLT-4, 72 h.
The subject of the next data set is T-24. The experiment in a line: Antiproliferative activity against human T24 cells assessed as growth inhibition incubated for 72 hrs by WST-1 assay. As to conditions: T-24, 72 h.
The next data set relates to Raji. The experiment in a line: Antiproliferative activity against human Raji cells assessed as growth inhibition incubated for 72 hrs by WST-1 assay.
The nature of data set [10]: Antiproliferative activity against human SNU-2535 cells assessed as growth inhibition incubated for 72 hrs by WST-1 assay. As to conditions: SNU-2535, 72 h.
The subject of the next data set is Daudi. The experiment in a line: Antiproliferative activity against human Daudi cells assessed as growth inhibition incubated for 72 hrs by WST-1 assay.
A further data set relates to THP-1. The experiment in a line: Antiproliferative activity against human THP-1 cells assessed as growth inhibition incubated for 72 hrs by WST-1 assay. As to conditions: THP-1, 72 h.
Another data set deals with LS-1034. The experiment in a line: Antiproliferative activity against human LS1034 cells assessed as growth inhibition incubated for 72 hrs by WST-1 assay. The conditions noted are these: LS-1034, 72 h.
For a further data set, the system named is U2932. The experiment in a line: Antiproliferative activity against human U2932 cells assessed as growth inhibition incubated for 72 hrs by WST-1 assay. As to conditions: U2932, 72 h.
The subject of another data set is K562. The experiment in a line: Antiproliferative activity against human K562 cells assessed as growth inhibition incubated for 72 hrs by WST-1 assay. As to conditions: K562, 72 h.
For the next data set, the system named is KU-19-19. The experiment in a line: Antiproliferative activity against human KU-19-19 cells assessed as growth inhibition incubated for 72 hrs by WST-1 assay. As to conditions: KU-19-19, 72 h.

For orientation: Kd means the constant that tells how readily two partners part at equilibrium. In general, GI50 refers to the concentration that inhibits growth by half. In the case of `Cc1nnc2c(NCCCCNC(=O)c3ccccc3Cl)nc3ccccc3n12`, the dissociation constant (Kd) in data set [1] is 32 nM; in data set [2], 110 nM. For the same compound, the GI50 in the data set on Ty-82 was determined as 9600 nM.
A word on the AUC(0-inf): it is the area under the concentration-time curve extrapolated to infinity. A low value points to less exposure. As a reminder, the half-life is the time needed for the level to fall by half in the phase considered. Broadly, the Tmax is the time at which the peak concentration occurs. The term AUC(0-t) denotes exposure summed from dosing to a finite time, without extrapolation to infinity. Lower therefore signals low exposure. Usually Cmax stands for the highest concentration seen after dosing. The compound `Cc1nnc2c(NCCCCNC(=O)OC(C)(C)C)nc3ccccc3n12` gave an AUC(0-inf) in “in vivo [3]” of 851 ng·h/mL. The dissociation constant (Kd) was 40 nM in data set [1] and 190 nM in data set [2]. For the same compound, the results for the GI50 with MV4-11 and in the data set on Ty-82 were 980 nM and 1000 nM, respectively. In data set [4], this compound showed a half-life of 3.52 h. In “in vivo [5]”, the Tmax turned out to be 0.667 h. In addition, the AUC(0-t) in “in vivo [6]” stood at 574 ng·h/mL. In “in vivo [7]”, this compound showed a maximum concentration (Cmax) of 180 ng/mL.
As for `Cc1nnc2c(NCCCCNC(=O)OC(C)(C)C)nc3cc(C(=O)O)ccc3n12`, the results for the Kd in data set [1] and in data set [2] were 36 nM and 220 nM, respectively. Also, the GI50 in the data set on Ty-82 was 650 nM.
With `COc1ccc2c(c1)nc(OCCCCNC(=O)CC(C)C)c1nnc(C)n12`, the dissociation constant (Kd) in data set [1] and in data set [2] was above 5000 nM in each case. In addition, the GI50 in the data set with MV4-11 and in the data set on Ty-82 was above 10000 nM in each case.
In the case of `Cc1nnc2c(NCCCCCCNC(=O)OC(C)(C)C)nc3ccccc3n12`, the Kd in data set [1] and in [2] was above 5000 nM throughout. Also, in the data set with Ty-82, the GI50 is above 10000 nM.
Regarding `Cc1nnc2c(NCCCCNC(=O)c3ccccc3)nc3ccccc3n12`, the Kd was 29 nM in data set [1] and 180 nM in [2]. Besides, the results for the GI50 in the data set on MV4-11 and in the data set with Ty-82 were 790 nM and 950 nM, respectively.
Regarding `COc1ccc2c(c1)nc(NCCCCNC(=O)CC(C)C)c1nnc(C)n12`, the Kd came out at 6.7 nM in [8] and 293 nM in data set [9].
`Cc1sc2c(c1C)C(c1ccc(Cl)cc1)=N[C@@H](CC(=O)Nc1ccc(O)cc1)c1nnc(C)n1-2` [BIRABRESIB]: the GI50 is above 10000 nM with NCI-H1666; above 10000 nM in the data set on NCI-H1975; 2800 nM with SUD4; 210 nM in the data set with Pfeiffer; 130 nM with BJAB; above 10000 nM in the data set on MOLT-4. The GI50 in the data set on MV4-11 was 30 nM; in the data set with T-24, 7900 nM; in the data set on Ty-82, 67 nM; in the data set with Raji, above 10000 nM; in data set [10] it was above 10000 nM; with Daudi, 4000 nM. The GI50 in the data set on THP-1 is 40 nM; in the data set on LS-1034, above 10000 nM; in the data set on U2932 it was above 10000 nM; with K562 it was above 10000 nM; in the data set with KU-19-19, above 10000 nM.
